Patent US20250283019A1, “NEURO-INTEGRATED BIOREACTOR SYSTEM FOR STUDYING JOINT PAIN AND TREATMENT THEREOF” (University of Pittsburgh - Of the Commonwealth System of …, priority 2022, published 2025)

Columns and labels:
DRG neurons = assay: Spiking of DRG neurons on MEAs in the central chamber of the neu-microJoint bioreactor in response to KCl; assay type: cell-based; settings: 30 mM KCl; DRG neurons cultured on MEAs for 4 days; screened with 10, 30 and 50 mM; little to no spontaneous activity at baseline
Experimental: Acutely dissociated DRG neurons are plated in the neural chamber and cultured in 2D at a density of […] to enable recording of neural activity, for example with microelectrodes or MEAs embedded in the floor of the chamber.
To enable recording of neural activity, sensory neurons are plated on a high-density microelectrode array (MEA) embedded in the floor of the neuron bioreactor chamber. Additionally, over the course of 28 days, the neurites reach the synovium, bone, and adipose chambers. In addition, they are functional, as assessed by the ability to maintain physiological cytosolic Ca^2+ concentrations (˜100 nM), a healthy resting membrane potential <−50 mV, and overshooting action potentials in response to physiological stimuli.
DRG neurons cultured on MEAs for 4 days in the central chamber of the neu-microJoint bioreactor were screened with increasing concentrations of KCl (10, 30, and 50 mM) to detect spiking.

sensory neurons = assay: Sensitization of sensory neurons in fura-2 Ca2+ imaging and whole cell patch recordings; assay type: cell-based
From the text: Macrophages can be added to any of the tissue scaffolds in the bioreactor to assess their contribution to joint pain modeled by the neu-microJoint bioreactor. M1 macrophages are a classically activated pro-inflammatory cell type that express pro-inflammatory cytokines, chemokines and many other substances. M2 macrophages are alternatively activated and have an anti-inflammatory pro-tissue regenerative phenotype.

[1] = test system: cartilage (in the upper part of the bone/cartilage chamber); assay: IL1β OA model in the neu-microJoint bioreactor: mRNA expression in cartilage; assay type: cell-based, human; settings: IL1β applied to the synovium flow only; cartilage not directly exposed; 10 ng/mL for 1 week
From the text: For the tissue scaffolds containing synovial cells, adipose cells, chondrocytes, or osteocytes, human mesenchymal stem cells (MSCs, >98% positive to CD73, 90, 105 and >99% negative to CD31, 34, 45, capable of colony formation and trilineage differentiation) or human iPSCs-derived MSCs (iMPCs) are encapsulated in photo-crosslinked gelatin scaffolds, and then subjected to tissue specific media to generate individual synovium, adipose, osteochondral tissues, as well as an additional individual macrophage component. After maturation, these tissue constructs are assembled with the chamber body inserts as described herein and inserted into the outer chambers of the neu-microJoint bioreactor, the fluid conduits are tapped and connected to suitable tubing, and tissue culture medium is pumped through the device to perfuse the tissue scaffolds. […]
Since IL1β that is used to generate the OA model is only applied to the flow of synovium, it indirectly stimulates the other tissues. […] As this may be part of the OA process, retrograde tracers may be used to distinguish activity in neurons innervating the synovium chamber from those innervating other chambers, and corresponding neural activity is monitored.

Compound: [Cl-].[K+] [KCl]
- spiking activity of DRG neurons (DRG neurons): activity was detected

Compound: CCCCC[C@H](O)/C=C/[C@H]1[C@H](O)CC(=O)[C@@H]1C/C=C\CCCC(=O)O [PGE2, prostaglandin E2]
- sensitization of sensory neurons (sensory neurons): sensitize sensory neurons

Compound: IL-6: factor generated by M1 macrophages; cytokine
- sensitization of sensory neurons (sensory neurons): sensitize sensory neurons

Compound: tumor necrosis factor (TNF)-α
- sensitization of sensory neurons (sensory neurons): sensitize sensory neurons

Compound: IL1β: cytokine used to trigger OA conditions in the outer chambers
- ADAMTS 4 mRNA expression in cartilage [1]: significant increases
- MMP13 mRNA expression in cartilage [1]: significant increases
